Measured values taken from ChEMBL document CHEMBL4673282, “Identification of a New Heterocyclic Scaffold for Inhibitors of the Polo-Box Domain of Polo-like Kinase 1” (J Med Chem, 2020).
Values after ≈ are worked out from the molar mass of the structure shown. Active and inactive are the calls of the source. The rule behind the calls is not given here.

Experiments:
[1] = Aqueous solubility of compound; type: physicochemical; settings: buffer
[2] = Half life in rat liver microsomes at 1 uM measured up to 60 mins in presence of NADPH generating system; settings: 1 h
[3] = molecular target: T1, Serine/threonine-protein kinase PLK1 (Homo sapiens, UniProt P53350); assay: Inhibition of biotin-Ahx-CETFDPPLHSpTAI-NH2 binding to recombinant human full-length HA-EGFP-tagged Plk1 PBD expressed in HEK293A cells preincubated for 30 mins followed by biotin-Ahx-CETFDPPLHSpTAI-NH2 addition and measured after 1 hr by 3,3',5,5'-tetramethylbenzidine substrate based ELISA; type: cell-based, HEK293-A
T1 sequence (P53350 whole entry): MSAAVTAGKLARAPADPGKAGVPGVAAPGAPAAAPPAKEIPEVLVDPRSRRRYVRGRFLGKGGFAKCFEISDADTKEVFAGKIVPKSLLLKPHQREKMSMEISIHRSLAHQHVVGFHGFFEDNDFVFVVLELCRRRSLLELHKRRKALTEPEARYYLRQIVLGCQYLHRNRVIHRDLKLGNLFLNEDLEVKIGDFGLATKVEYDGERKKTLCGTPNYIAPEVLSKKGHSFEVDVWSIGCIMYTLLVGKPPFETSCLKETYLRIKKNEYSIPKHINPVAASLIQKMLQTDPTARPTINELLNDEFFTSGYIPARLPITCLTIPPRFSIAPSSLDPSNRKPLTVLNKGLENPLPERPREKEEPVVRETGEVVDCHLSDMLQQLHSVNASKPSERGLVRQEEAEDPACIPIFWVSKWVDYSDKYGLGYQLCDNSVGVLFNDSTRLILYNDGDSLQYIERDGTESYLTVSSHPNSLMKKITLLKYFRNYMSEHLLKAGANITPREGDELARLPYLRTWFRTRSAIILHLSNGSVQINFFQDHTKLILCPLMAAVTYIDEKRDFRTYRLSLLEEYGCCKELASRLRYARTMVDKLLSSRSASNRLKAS

in vitro = settings: PAMPA
Description: Permeability of the compound by PAMPA

[4] = molecular target: Serine/threonine-protein kinase PLK3 (Homo sapiens) (UniProt Q9H4B4); assay: Inhibition of FITC-Ahx-DPPLHSpTAI-NH2 binding to Plk3 PBD (unknown origin) expressed in bacterial expression system measured after 30 mins by fluorescence polarization assay
Serine/threonine-protein kinase PLK3 (Homo sapiens), sequence (Q9H4B4 whole entry, looked up): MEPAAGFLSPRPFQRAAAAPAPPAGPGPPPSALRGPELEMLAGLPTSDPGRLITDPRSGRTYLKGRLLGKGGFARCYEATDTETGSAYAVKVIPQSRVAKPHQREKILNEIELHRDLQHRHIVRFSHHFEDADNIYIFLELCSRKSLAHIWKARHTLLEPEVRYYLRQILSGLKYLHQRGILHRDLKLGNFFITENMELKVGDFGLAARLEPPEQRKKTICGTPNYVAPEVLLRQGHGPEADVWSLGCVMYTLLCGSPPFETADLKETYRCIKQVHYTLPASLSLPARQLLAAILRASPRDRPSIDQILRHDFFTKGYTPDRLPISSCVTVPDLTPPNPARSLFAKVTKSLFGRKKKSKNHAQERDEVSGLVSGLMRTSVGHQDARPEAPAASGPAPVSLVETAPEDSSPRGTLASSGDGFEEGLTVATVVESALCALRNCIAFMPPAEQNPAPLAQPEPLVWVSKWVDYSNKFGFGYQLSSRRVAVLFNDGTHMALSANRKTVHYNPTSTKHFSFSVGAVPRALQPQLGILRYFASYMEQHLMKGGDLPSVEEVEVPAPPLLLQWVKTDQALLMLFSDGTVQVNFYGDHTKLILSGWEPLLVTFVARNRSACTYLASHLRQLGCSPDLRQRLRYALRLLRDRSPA

[5] = Half life in human cytosol; type: ADME, subcellular
HeLa [6] = assay: Induction of mitotic arrest in human HeLa cells assessed as rounded cells with apoptosis at 100 uM measured after 12 hrs by DAPI staining based phase contrast microscopic analysis; type: functional, cell-based
HeLa [7] = assay: Induction of mitotic arrest in human HeLa cells assessed as apperance of aberrant chromosomal morphology at 100 uM measured after 12 hrs by DAPI staining based phase contrast microscopic analysis; type: functional, cell-based
[8] = Half life in mouse cytosol; type: ADME, subcellular
[9] = Half life in rat cytosol; type: ADME, subcellular
[10] = PAMPA
Description: Permeability of the compound by PAMPA

[11] = molecular target: T1, Serine/threonine-protein kinase PLK1; assay: Inhibition of Plk1 PBD in human HeLa cells assessed as reduction in plk1 localization to kinetochores at 100 uM measured after 12 hrs by immunostaining based assay; type: cell-based
[12] = Drug metabolism in C57BL/6 mouse assessed as hydroxylation in serum at 20 mg/kg, ip measured after 15 mins by UPLC-ESI-QTOFMS analysis; type: ADME, organism-based; settings: in vivo
[13] = molecular target: T1, Serine/threonine-protein kinase PLK1; assay: Inhibition of Plk1 PBD in human HeLa cells assessed as reduction in plk1 localization to centrosomes at 100 uM measured after 12 hrs by immunostaining based assay; type: cell-based
[14] = Toxicity in C57BL/6 mouse at 20 mg/kg, ip; type: organism-based; settings: in vivo
HeLa [15] = assay: Induction of mitotic arrest in human HeLa cells assessed as abnormal spindle morphology at 100 uM measured after 12 hrs by DAPI staining based immunoassay; type: functional, cell-based
HeLa [16] = assay: Antiproliferative activity against human HeLa cells assessed as reduction in cell population at 100 uM measured after 3 days by DAPI staining based phase contrast microscopic analysis relative to control; type: functional; set-up: scale not given: the % may be the effect or the level left; settings: time 3 day
[17] = Drug metabolism in C57BL/6 mouse assessed as demethylation in serum at 20 mg/kg, ip measured after 15 to 240 mins by UPLC-ESI-QTOFMS analysis; type: ADME, organism-based; settings: in vivo, time 15-240 min
[18] = molecular target: T2, Muscarinic acetylcholine receptor M5 (Homo sapiens, UniProt P08912); assay: Inhibition of M5 (unknown origin) at 10 uM relative to control
T2 sequence (P08912 whole entry): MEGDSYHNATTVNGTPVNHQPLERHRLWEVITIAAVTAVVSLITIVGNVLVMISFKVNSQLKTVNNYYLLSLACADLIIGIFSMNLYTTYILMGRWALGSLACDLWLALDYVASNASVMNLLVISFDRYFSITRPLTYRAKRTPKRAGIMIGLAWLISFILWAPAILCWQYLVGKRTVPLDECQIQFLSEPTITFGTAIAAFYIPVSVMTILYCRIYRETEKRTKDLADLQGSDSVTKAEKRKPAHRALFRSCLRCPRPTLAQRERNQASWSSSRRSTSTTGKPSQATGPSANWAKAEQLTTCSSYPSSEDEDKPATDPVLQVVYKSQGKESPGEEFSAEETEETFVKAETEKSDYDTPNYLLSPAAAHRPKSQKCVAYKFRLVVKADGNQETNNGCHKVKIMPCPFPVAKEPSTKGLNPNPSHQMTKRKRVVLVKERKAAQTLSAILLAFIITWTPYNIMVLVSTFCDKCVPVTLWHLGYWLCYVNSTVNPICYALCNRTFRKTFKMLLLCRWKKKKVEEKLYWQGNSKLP

[19] = molecular target: T3, Muscarinic acetylcholine receptor M4 (Homo sapiens, UniProt P08173); assay: Inhibition of M4 (unknown origin) at 10 uM relative to control
T3 sequence (P08173 whole entry): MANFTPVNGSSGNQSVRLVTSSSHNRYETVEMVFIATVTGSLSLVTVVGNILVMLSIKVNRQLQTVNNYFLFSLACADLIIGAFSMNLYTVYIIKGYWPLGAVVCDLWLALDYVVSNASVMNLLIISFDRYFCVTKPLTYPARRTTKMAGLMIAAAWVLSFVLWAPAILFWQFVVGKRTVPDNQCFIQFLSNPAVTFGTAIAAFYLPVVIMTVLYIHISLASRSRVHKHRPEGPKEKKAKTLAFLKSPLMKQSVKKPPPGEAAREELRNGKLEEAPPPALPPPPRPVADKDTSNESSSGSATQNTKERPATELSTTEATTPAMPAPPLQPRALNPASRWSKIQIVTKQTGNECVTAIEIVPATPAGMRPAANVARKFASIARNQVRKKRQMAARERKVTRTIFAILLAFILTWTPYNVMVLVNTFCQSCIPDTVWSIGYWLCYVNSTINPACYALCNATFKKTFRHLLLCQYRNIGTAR

[20] = molecular target: Muscarinic acetylcholine receptor M3 (Homo sapiens, UniProt P20309); assay: Inhibition of M3 (unknown origin) at 10 uM relative to control
Muscarinic acetylcholine receptor M3, sequence (P20309 whole entry): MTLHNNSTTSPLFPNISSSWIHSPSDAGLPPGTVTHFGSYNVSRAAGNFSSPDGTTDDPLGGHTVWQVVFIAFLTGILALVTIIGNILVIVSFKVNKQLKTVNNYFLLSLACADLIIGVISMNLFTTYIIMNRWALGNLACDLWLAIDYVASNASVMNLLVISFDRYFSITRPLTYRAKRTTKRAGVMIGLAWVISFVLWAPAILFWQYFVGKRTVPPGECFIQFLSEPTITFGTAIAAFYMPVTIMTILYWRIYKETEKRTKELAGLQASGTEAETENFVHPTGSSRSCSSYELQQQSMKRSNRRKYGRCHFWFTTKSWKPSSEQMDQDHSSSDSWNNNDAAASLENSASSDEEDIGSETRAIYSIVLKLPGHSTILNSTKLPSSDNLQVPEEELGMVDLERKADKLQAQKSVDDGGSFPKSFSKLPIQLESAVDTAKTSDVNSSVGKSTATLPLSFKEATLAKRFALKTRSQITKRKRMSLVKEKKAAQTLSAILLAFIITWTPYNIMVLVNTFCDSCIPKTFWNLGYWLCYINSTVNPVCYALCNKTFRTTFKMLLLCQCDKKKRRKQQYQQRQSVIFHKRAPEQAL

[21] = molecular target: Serine/threonine-protein kinase PLK2 (Homo sapiens, UniProt Q9NYY3); assay: Inhibition of FITC-Ahx-DPPLHSpTAI-NH2 binding to Plk2 PBD (unknown origin) expressed in bacterial expression system measured after 30 mins by fluorescence polarization assay; settings: 0.5 h
Serine/threonine-protein kinase PLK2, sequence (Q9NYY3 whole entry): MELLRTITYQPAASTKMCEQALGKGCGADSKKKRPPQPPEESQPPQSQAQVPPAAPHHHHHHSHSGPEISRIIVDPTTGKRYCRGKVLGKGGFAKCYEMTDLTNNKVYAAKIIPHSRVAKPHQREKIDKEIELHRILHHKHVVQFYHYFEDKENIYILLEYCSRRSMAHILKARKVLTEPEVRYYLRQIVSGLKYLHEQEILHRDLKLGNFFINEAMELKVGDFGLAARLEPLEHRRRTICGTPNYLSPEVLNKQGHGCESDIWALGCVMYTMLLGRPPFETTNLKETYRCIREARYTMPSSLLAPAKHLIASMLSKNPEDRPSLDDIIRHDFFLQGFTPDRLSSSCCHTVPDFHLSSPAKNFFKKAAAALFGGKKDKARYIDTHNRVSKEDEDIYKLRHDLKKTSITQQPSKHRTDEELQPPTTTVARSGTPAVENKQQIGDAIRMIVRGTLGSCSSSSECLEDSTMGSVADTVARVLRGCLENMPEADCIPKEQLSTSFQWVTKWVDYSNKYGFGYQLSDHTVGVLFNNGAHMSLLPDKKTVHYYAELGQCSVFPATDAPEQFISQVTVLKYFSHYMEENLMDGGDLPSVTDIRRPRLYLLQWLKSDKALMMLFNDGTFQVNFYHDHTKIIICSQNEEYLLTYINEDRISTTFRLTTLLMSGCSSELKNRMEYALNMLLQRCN

Compound: CCCCn1c(=O)c2ccccc2n2c(S)nnc12
- solubility [1]: 8.5 µg/mL (≈ 31 µM)
- t1/2 [2]: > 30 min
- IC50 [3]: 1030 nM
- Papp (in vitro): 77.5 ×10⁻⁶ cm/s

Compound: CC(=O)N1CCC[C@H]1C(=O)N[C@@H](CC(C)C)C(=O)N[C@@H](Cc1cnc[nH]1)C(=O)N[C@@H](CO)C(=O)N[C@H](C(=O)O)[C@@H](C)OP(=O)(O)O
- inhibition [4]: inactive

Compound: CCCn1c(=O)c2cc(F)ccc2n2c(SC)nnc12
- t1/2 [5]: <= 120 min
- Activity (HeLa [6]): Active
- Activity (HeLa [7]): Active
- t1/2 [8]: <= 120 min
- t1/2 [9]: <= 120 min

Compound: CCOCCCn1c(=O)c2ccccc2n2c(S)nnc12
- solubility [1]: 15.5 µg/mL (≈ 50.9 µM)
- IC50 [3]: 1680 nM

Compound: C=CCn1c(=O)c2ccccc2n2c(S)nnc12
- solubility [1]: 19.4 µg/mL (≈ 75.1 µM)
- IC50 [3]: 1310 nM

Compound: CC(C)CCn1c(=O)c2ccccc2n2c(=S)[nH]nc12
- solubility [1]: 8 µg/mL (≈ 27.7 µM)
- IC50 [3]: 1730 nM

Compound: CCCCCn1c(=O)c2ccccc2n2c(S)nnc12
- solubility [1]: 4.2 µg/mL (≈ 14.6 µM)
- IC50 [3]: 1970 nM

Compound: C[C@H]1C[C@@H]1n1c(=O)c2cc(F)ccc2n2c(=S)[nH]nc12 (relative stereo)
- permeability [10]: 188 10^-6 cm/s
- solubility [1]: 13.2 µg/mL (≈ 45.5 µM)
- t1/2 [2]: > 30 min

Compound: CC(=O)N1CCC[C@H]1C(=O)N[C@@H](CC(C)C)C(=O)N[C@@H](Cc1cnc[nH]1)C(=O)N[C@@H](CO)C(=O)N[C@H](C(=O)O)[C@@H](C)O
- inhibition [4]: inactive

Compound: CCCn1c(=O)c2cccc(F)c2n2c(SC)nnc12
- Activity (HeLa [6]): Active
- Activity (HeLa [7]): Active

Compound: Cc1cccc(-n2c(=O)c3ccccc3n3c(S)nnc23)c1C
- IC50 [3]: 1850 nM

Compound: CCCn1c(=O)c2ccccc2n2c(SC)nnc12
- t1/2 [5]: <= 120 min
- inhibition [11]: 50%
- Drug metabolism [12]: Metabolite_Detected
- inhibition [13]: 20%
- Activity [14]: Non-Toxic
- Activity (HeLa [15]): Active
- Activity (HeLa [6]): Active
- Activity (HeLa [7]): Active
- IC50 [3]: > 50000 nM
- t1/2 [8]: <= 120 min
- Activity (HeLa [16]): 50%
- Drug metabolism [17]: Metabolite_Detected
- t1/2 [9]: <= 120 min

Compound: NCCCn1c(=O)c2cc(F)ccc2n2c(=S)[nH]nc12
- solubility [1]: 27 µg/mL (≈ 92 µM)
- inhibition at 10 µM [18]: 84%
- t1/2 [2]: > 30 min
- Papp (in vitro): 16.8 ×10⁻⁶ cm/s
- inhibition at 10 µM [19]: 73%
- inhibition at 10 µM [20]: 100%

Compound: COCCCn1c(=O)c2ccccc2n2c(S)nnc12
- solubility [1]: 31.2 µg/mL (≈ 107 µM)
- IC50 [3]: 1750 nM

Compound: O=c1c2cc(F)ccc2n2c(=S)[nH]nc2n1CC1CC1
- inhibition (INH) [21]: Not Active
- inhibition [4]: inactive
- solubility [1]: 16.2 µg/mL (≈ 55.8 µM)
- t1/2 [2]: > 30 min
- Papp (in vitro): 46 ×10⁻⁶ cm/s

Compound: CCCn1c(=O)c2ccccc2n2c(=S)n(CC(=O)c3ccccc3)nc12
- IC50 [3]: > 50000 nM
